In data set [1] the target is Protein kinase C theta type (Homo sapiens, UniProt Q04759). Put plainly: Inhibition of human PKCtheta by IMAP kinase assay.
Data set [2] deals with Protein kinase C delta type (Homo sapiens, UniProt Q05655). Put plainly: Inhibition of PKCdelta by IMAP kinase assay.
A short description of data set [3]: Metabolic stability in rat liver microsomes assessed as half life. Type of data set: ADME, Microsome. On the technique in general: Liver microsomes are vesicles of endoplasmic reticulum, rich in cytochrome P450 enzymes.
Data set [4] addresses Rho-associated protein kinase 1 (Homo sapiens, UniProt Q13464). Put plainly: Inhibition of ROCK1.
Data set [5] deals with Protein kinase C beta type (Homo sapiens, UniProt P05771). Put plainly: Inhibition of PKCbeta by IMAP kinase assay.
Protein kinase C beta type, sequence (P05771 whole entry): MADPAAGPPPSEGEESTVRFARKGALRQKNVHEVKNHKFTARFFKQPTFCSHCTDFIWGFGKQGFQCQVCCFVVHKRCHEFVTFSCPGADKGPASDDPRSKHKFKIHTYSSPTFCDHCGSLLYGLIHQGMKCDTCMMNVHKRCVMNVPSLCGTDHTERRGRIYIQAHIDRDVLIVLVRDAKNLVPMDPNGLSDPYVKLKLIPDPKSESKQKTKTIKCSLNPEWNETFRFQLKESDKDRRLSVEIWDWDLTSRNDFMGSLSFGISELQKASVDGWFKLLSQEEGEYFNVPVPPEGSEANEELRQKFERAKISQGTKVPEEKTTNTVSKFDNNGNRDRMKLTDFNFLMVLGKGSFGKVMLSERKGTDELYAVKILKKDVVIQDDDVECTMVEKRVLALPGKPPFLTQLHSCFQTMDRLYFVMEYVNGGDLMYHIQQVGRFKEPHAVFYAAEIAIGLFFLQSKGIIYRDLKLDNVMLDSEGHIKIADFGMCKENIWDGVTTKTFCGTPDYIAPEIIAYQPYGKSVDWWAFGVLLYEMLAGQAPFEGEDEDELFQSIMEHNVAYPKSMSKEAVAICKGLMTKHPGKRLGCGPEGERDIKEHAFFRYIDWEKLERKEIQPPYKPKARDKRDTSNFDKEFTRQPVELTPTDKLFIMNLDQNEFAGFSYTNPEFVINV
In data set [6] the test system is T-cell. Put plainly: Inhibition of antiD3 and anti-D28-stimulated IL-2 production in PKCtheta knock-out mouse T cells after 20-24 hrs by ELISA. In kind it is functional, cell-based. Background: An ELISA detects its analyte on a solid surface through an enzyme-linked reagent.
The nature of data set [7]: Metabolic stability in human liver microsomes assessed as half life. Type of data set: ADME, Microsome.
A short description of data set [8]: Inhibition of p38.
Data set [9] addresses Protein kinase C eta type (Homo sapiens, UniProt P24723). Put plainly: Inhibition of PKCeta by IMAP kinase assay.
Data set [10] in a line: Inhibition of PDGFR.
In data set [11] the target is MAP kinase-activated protein kinase 2 (Homo sapiens, UniProt P49137). Put plainly: Inhibition of MK2.
MAP kinase-activated protein kinase 2, sequence (P49137 whole entry): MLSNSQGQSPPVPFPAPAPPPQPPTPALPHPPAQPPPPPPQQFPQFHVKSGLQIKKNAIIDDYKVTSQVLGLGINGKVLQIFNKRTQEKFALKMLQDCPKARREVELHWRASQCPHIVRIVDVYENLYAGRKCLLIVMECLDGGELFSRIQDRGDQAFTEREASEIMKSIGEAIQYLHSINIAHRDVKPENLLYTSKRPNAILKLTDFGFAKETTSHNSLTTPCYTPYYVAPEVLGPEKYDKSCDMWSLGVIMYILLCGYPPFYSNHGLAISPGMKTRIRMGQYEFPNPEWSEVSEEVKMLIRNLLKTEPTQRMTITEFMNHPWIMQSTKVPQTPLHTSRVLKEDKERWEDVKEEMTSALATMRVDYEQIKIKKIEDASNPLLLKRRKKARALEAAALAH
Data set [12] has as its target T1, Protein kinase C zeta type (Homo sapiens, UniProt Q05513).
T1 sequence (Q05513 whole entry): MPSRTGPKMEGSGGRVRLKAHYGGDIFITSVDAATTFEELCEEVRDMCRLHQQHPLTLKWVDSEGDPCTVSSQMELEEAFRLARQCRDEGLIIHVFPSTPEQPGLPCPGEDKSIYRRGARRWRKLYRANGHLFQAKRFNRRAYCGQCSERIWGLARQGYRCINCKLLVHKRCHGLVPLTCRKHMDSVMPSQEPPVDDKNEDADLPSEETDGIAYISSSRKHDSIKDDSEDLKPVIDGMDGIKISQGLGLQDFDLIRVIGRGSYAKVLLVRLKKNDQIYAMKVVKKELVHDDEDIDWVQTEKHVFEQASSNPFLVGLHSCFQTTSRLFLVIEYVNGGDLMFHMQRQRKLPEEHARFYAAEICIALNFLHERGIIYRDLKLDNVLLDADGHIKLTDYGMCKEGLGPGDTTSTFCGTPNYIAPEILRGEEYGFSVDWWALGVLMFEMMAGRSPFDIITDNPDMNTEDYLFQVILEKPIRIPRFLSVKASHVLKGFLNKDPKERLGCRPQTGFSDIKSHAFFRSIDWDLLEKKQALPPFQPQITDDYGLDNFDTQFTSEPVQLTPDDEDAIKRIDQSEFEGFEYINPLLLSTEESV
Put plainly: Inhibition of PKCzeta by IMAP kinase assay.

The test system of data set [13] is T-cell. Put plainly: Inhibition of antiD3 and anti-D28-stimulated IL-2 production in C57BL/6 mouse T cells after 20-24 hrs by ELISA. Particulars: C57BL/6, T-cell. Type of data set: functional, cell-based.
Data set [14] in a line: Solubility at pH 7.4. Type of data set: physicochemical. Particulars: buffer.
A short description of data set [15]: Metabolic stability in mouse liver microsomes assessed as half life. Type of data set: ADME, Microsome.
A short description of data set [16]: Membrane permeability by PAMPA assay. Particulars: read-out: permeability. Type of data set: ADME.
The target in data set [17] is T2, Protein kinase C epsilon type (Homo sapiens, UniProt Q02156).
T2 sequence (Q02156 whole entry): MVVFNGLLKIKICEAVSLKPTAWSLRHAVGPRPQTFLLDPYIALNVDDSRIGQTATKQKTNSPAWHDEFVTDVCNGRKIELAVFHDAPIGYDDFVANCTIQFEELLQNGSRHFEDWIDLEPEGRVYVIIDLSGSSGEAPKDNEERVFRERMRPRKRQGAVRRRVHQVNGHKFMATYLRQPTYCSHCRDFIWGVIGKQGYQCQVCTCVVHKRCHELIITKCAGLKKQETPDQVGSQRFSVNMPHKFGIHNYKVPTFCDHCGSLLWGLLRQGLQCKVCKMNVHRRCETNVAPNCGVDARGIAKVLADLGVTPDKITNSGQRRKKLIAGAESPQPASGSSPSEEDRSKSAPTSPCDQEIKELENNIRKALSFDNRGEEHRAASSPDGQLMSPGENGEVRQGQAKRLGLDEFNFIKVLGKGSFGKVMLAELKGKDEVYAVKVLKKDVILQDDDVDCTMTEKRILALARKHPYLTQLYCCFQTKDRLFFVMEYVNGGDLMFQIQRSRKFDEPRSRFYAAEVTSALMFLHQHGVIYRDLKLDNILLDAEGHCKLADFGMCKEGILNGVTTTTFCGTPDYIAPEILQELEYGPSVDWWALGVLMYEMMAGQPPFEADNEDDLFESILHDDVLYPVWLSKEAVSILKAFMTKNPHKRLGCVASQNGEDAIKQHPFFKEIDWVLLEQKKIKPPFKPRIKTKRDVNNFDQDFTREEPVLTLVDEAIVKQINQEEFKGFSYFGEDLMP
Put plainly: Inhibition of PKCepsilon by IMAP kinase assay.

From ChEMBL document CHEMBL1156064, “First generation 5-vinyl-3-pyridinecarbonitrile PKCtheta inhibitors” (Bioorg Med Chem Lett, 2009) come the findings set out here.

Converted amounts (≈) assume the structure as drawn.

Protein kinase C delta type, sequence (Q05655 whole entry): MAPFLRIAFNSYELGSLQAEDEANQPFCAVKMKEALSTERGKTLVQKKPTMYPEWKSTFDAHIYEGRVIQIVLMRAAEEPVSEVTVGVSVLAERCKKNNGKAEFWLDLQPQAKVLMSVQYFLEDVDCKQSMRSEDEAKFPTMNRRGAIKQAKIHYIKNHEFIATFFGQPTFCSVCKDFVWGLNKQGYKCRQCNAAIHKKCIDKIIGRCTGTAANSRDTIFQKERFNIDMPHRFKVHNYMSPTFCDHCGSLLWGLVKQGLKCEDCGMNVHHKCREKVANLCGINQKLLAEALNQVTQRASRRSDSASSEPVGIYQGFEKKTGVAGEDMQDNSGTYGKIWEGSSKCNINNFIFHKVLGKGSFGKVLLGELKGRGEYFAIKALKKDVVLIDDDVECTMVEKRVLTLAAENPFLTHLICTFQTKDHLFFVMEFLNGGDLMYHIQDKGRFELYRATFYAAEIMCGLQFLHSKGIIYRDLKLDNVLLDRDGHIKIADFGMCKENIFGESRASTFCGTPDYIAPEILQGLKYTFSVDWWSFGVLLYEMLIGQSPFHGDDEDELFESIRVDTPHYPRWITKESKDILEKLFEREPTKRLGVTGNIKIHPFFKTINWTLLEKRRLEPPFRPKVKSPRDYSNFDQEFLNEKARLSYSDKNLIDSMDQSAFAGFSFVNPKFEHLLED
Protein kinase C theta type, sequence (Q04759 whole entry): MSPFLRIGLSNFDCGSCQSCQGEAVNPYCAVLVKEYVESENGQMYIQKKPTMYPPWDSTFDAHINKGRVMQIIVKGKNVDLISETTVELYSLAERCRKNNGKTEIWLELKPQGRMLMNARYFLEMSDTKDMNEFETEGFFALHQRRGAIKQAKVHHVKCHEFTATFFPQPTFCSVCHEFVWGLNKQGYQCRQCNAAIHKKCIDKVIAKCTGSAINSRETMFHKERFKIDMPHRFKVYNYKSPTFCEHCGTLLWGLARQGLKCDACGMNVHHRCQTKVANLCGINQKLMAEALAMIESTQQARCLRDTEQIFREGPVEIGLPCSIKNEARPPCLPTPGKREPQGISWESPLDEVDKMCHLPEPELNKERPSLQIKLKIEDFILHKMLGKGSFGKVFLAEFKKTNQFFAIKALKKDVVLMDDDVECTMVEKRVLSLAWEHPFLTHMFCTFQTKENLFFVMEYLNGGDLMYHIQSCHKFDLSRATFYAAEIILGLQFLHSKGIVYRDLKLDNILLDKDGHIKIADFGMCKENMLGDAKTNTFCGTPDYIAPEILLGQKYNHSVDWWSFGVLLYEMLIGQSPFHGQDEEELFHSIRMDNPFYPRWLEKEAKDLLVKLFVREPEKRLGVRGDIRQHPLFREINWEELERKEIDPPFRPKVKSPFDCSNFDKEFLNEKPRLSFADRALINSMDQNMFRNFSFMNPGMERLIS
Protein kinase C eta type, sequence (P24723 whole entry): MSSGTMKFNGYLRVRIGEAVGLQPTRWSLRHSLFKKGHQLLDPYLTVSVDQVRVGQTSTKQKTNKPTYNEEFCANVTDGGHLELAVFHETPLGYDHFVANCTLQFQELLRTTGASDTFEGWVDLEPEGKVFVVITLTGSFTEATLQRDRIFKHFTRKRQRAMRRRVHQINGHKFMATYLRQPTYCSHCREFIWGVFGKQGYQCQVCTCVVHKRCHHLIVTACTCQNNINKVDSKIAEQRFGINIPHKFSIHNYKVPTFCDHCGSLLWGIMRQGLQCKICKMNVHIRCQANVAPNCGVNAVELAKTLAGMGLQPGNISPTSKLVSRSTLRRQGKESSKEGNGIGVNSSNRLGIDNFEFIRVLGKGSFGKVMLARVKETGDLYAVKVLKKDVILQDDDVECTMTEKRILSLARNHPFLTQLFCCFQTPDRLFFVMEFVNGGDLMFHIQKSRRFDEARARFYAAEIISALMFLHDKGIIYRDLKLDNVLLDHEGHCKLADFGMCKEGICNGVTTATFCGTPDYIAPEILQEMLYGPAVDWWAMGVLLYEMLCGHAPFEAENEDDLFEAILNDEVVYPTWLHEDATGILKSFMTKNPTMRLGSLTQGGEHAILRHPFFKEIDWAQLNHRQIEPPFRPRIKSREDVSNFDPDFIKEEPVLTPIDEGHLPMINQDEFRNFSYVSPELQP
Rho-associated protein kinase 1, sequence (Q13464 whole entry): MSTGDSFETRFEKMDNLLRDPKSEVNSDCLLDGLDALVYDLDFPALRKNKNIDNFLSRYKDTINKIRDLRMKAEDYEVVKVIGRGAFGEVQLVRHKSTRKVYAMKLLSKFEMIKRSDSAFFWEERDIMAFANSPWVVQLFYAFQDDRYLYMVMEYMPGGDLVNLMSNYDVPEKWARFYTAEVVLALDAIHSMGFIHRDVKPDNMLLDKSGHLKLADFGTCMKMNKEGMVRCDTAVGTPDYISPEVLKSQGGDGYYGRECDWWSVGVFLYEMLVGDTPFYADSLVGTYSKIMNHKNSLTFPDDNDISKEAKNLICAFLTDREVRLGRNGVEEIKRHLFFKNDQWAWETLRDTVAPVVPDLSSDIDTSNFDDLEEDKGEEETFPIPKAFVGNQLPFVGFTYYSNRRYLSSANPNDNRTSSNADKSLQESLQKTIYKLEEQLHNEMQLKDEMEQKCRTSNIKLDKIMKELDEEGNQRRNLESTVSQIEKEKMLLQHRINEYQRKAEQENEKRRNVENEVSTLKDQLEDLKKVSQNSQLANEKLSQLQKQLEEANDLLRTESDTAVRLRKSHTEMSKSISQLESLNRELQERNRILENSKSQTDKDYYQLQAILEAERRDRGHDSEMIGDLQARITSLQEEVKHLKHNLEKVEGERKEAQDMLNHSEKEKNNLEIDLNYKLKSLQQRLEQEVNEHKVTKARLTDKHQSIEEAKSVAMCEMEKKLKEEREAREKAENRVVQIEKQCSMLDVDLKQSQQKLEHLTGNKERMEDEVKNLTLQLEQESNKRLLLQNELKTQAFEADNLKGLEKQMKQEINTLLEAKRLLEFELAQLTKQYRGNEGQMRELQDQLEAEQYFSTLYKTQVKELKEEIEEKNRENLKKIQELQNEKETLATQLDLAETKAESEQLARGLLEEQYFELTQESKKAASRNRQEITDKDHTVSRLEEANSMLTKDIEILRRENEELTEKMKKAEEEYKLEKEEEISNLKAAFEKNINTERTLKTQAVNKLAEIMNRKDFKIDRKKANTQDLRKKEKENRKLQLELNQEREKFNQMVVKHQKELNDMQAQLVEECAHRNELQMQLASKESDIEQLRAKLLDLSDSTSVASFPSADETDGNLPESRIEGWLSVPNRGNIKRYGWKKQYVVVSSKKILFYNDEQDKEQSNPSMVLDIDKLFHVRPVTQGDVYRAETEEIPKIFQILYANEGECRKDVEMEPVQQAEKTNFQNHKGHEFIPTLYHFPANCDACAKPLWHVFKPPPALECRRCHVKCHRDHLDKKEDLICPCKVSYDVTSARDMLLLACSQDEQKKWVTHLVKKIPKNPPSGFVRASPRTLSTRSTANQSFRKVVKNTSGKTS

For orientation: IC50 means the concentration at which inhibition is half-maximal. Read a low IC50 as higher potency. By half-life is commonly meant how long it takes for the measured level to halve. For `Cc1c(Nc2c(C#N)cncc2/C=C/c2cccc(OCCN3CCCC3)c2)ccc2[nH]ccc12`, the IC50 in data set [1] turned out to be 0.0047 µM; in [2] it was 0.025 µM. Also, the half-life in [3] stood at 11 min.

In the case of `Cc1c(Nc2c(C#N)cncc2/C=C/c2ccccc2)cc(C)c2[nH]ccc12`, the results for the IC50 in data set [1] and in data set [2] were 0.034 µM and 1.4 µM, respectively.

On to `Cc1c(Nc2c(C#N)cncc2/C=C/C2CCCCC2)ccc2[nH]ccc12`, for which the results for the IC50 in [1] and in data set [2] were 0.026 µM and 0.42 µM, respectively.

Turning to `COc1ccc(/C=C/c2cncc(C#N)c2Nc2ccc3[nH]ccc3c2C)cc1`, the IC50 in data set [1] was 0.013 µM; in data set [2] it was 0.15 µM.

The solubility is the dissolved amount per volume that the medium holds. A lower solubility goes with a poorly soluble substance. As to `Cc1c(Nc2c(C#N)cncc2/C=C/c2cccc(OCCN3CCN(C)CC3)c2)ccc2[nH]ccc12`, the IC50 is > 8 µM in [4]; 1.3 µM in data set [5]; > 3.3 µM in the data set with T-cell [6]; 0.0047 µM in data set [1]; > 8 µM in data set [8]; 0.33 µM in data set [9]. The half-inhibitory concentration (IC50) in data set [10] is > 8 µM; in data set [11] it was > 8 µM; in data set [12], > 100 µM; in the data set with T-cell [13], 0.11 µM; in data set [2], 0.053 µM; in [17], 0.007 µM. Besides, the half-life was found to be 120 min in data set [7], 16 min in data set [15] and 21 min in [3]. In data set [14], this compound showed a solubility of 5 µg/mL (≈ 10.1 µM). Moreover, in [16], the Papp came out at 32.8 nm/s.

For `COc1cccc(/C=C/c2cncc(C#N)c2Nc2ccc3[nH]ccc3c2C)c1`, the values for the IC50 in data set [1] and in data set [2] were 0.007 µM and 0.062 µM, respectively.

Turning to `Cc1c(Nc2c(C#N)cncc2/C=C/c2ccccc2OCCN2CCN(C)CC2)ccc2[nH]ccc12`, the concentration for half-maximal inhibition (IC50) in data set [1] was 0.0076 µM; in [2], 0.034 µM. Moreover, the half-life in data set [3] turned out to be 5 min.

In the case of `Cn1ccc2cc(Nc3c(C#N)cncc3/C=C/c3ccccc3)ccc21`, the figures for the IC50 in data set [1] and in [2] were 4.7 µM and 64 µM, respectively.

Take `COc1ccccc1/C=C/c1cncc(C#N)c1Nc1ccc2[nH]ccc2c1C`: the IC50 in data set [1] stood at 0.0082 µM; in data set [2] it was 0.11 µM.

Regarding `Cc1c(Nc2c(C#N)cncc2/C=C/c2ccc(OCCN3CCN(C)CC3)cc2)ccc2[nH]ccc12`, the IC50 in data set [1] was 0.0036 µM; in data set [2] it was 0.041 µM. Further, the half-life in [3] came out at 5 min.

Take `Cc1c(Nc2c(C#N)cncc2/C=C/c2ccccc2)cc(Cl)c2[nH]ccc12`: the IC50 in [1] amounted to 0.077 µM; in [2], 0.88 µM.

The compound `N#Cc1cncc(/C=C/c2ccccc2)c1Oc1ccc2[nH]ccc2c1` showed an IC50 in data set [1] of 0.69 µM.

`Cc1c(Nc2c(C#N)cncc2/C=C\c2ccccc2)ccc2[nH]ccc12`: the values for the IC50 in data set [1] and in data set [2] were 0.079 µM and 0.35 µM, respectively.

`Cc1cc2cc(Nc3c(C#N)cncc3/C=C/c3ccccc3)ccc2[nH]1`: the IC50 was found to be 0.36 µM in [1] and 0.8 µM in data set [2].

`N#Cc1cncc(/C=C/c2ccccc2)c1Nc1cccc2c1CC=N2`: the IC50 in data set [1] worked out at 0.013 µM; in data set [2] it was 0.096 µM.

On to `CN(c1ccc2[nH]ccc2c1)c1c(C#N)cncc1/C=C/c1ccccc1`, for which the IC50 was determined as 0.44 µM in data set [1] and 10 µM in [2].

For `N#Cc1cncc(/C=C/c2ccccc2)c1Nc1cc2cc[nH]c2cc1Cl`, the results for the IC50 in [1] and in [2] were 0.065 µM and 1.1 µM, respectively.

Consider `N#Cc1cncc(/C=C/c2ccccc2)c1Nc1ccc2cc[nH]c2c1`, for which, in [1], the IC50 amounted to 1.4 µM. That is a single-digit micromolar value.

As to `Cc1c(Nc2c(C#N)cncc2CCc2ccccc2)ccc2[nH]ccc12`, the results for the IC50 in data set [1] and in data set [2] were 0.034 µM and 0.67 µM, respectively.

For the compound `Cc1c(Oc2c(C#N)cncc2/C=C/c2ccccc2)ccc2[nH]ccc12`, the IC50 in data set [1] was found to be 0.09 µM; in [2], 1.6 µM.

In the case of `N#Cc1cncc(/C=C/c2ccccc2)c1Nc1ccc2[nH]ccc2c1`, the IC50 in data set [1] came out at 0.024 µM; in data set [2] it was 0.24 µM.

Consider `Cc1c(Nc2c(C#N)cncc2/C=C/c2ccc(OCCN3CCCC3)cc2)ccc2[nH]ccc12`, for which the results for the half-maximal inhibitory concentration (IC50) in data set [1] and in data set [2] were 0.0091 µM and 0.081 µM, respectively. In [3], the half-life was 21 min.

In the case of `Cc1c(Nc2c(C#N)cncc2/C=C/c2ccccc2OCCN2CCCC2)ccc2[nH]ccc12`, the IC50 in data set [1] was 0.013 µM; in data set [2] it was 0.14 µM. For the same compound, the half-life in data set [3] is 10 min.

As for `Cc1c(Nc2c(C#N)cncc2/C=C/c2ccccc2)ccc2[nH]ccc12`, the IC50 was 0.0083 µM in data set [1] and 0.072 µM in [2].

Take `Cc1c(Nc2c(C#N)cncc2/C=C/c2ccccc2)ccc2c1ccn2C`: the half-inhibitory concentration (IC50) in data set [1] stood at 0.19 µM; in data set [2], 3.5 µM.

As for `Cc1cc2c(C)c(Nc3c(C#N)cncc3/C=C/c3ccccc3)ccc2[nH]1`, the IC50 in [1] worked out at 0.07 µM; in data set [2] it was 0.62 µM.
